pEC50: −log10 of the molar value. A value given as a limit tells only on which side of the number the result lay.

These results are taken from patent US11596716B2, “Compounds and matrices for use in bone growth and repair” (Human BioMolecular Research Institute, priority 2013, dated 2023).

Series [1] relates to Wnt transcription. In words: WNT transcriptional reporter assay (Super(8×)TOPflash luciferase, HEK293T cells). In kind it is cell-based. As to conditions: Wnt3A-expressing vector, 20 hrs, relative to cells treated with DMSO alone, read-out: Wnt transcription potency. An excerpt:
Commercially available Super(8×)TOPflash vector driven by a (7×) TCF-firefly luciferase response element was transiently transfected into HEK293T cells, together with a TK-driven Renilla luciferase plasmid as an internal control to normalize the luminescence signal and a Wnt3A-expressing vector as the source of pathway activation. HEK293T cells were transfected with plasmids in DMEM plus 10% fetal bovine serum (FBS) for 8 hr, replated to 96-well plates in DMEM plus 10% FBS followed by treatment with compounds (1.6 nM to 5 M) (DMSO final concentration is 0.5%) for 20 hrs. Firefly and Renilla luciferase activities were measured and normalized by the Renilla luciferase values.

The subject of series [2] is C2C12 cells. As to the kind of experiment: Alkaline Phosphatase (ALP) functional activity assay in C2C12 cells. Type of series: cell-based, Mouse. As to conditions: for activation at 0.5 µM: Mus musculus, C2C12, 144 h, compounds of Formula VI, normalized to DMSO treatment. Here is the method:
Alkaline Phosphatase (ALP) Functional Activity Assay: C2C12 cells were plated into 12-well plates with 7,000 cells/well in 1 mL growth media. […] 1, 2, 3, or 4 in 0.1% DMSO was added (500 nM). Half the media was exchanged with fresh media containing compound every 48 hrs. After 6 days, media was removed, ALP Lysis Buffer (10 mM Tris-HCl pH 8.0, 1 mM MgCl2, and 1% Triton X100) added, and cell lysate obtained (10 min incubation at RT) by centrifugation (5 min at 3500× g at 4° C.). Para-nitrophenol phosphate (pNPP) (2 mg/mL) was incubated with 50 μl cell lysate (10 mins, 37° C.). After addition of […] 0.02 N NaOH, absorbance OD405 was measured. Protein concentration was determined by Bradford protein assay. Results of ALP activity were plotted as nM pNP hydrolyzed/mg total protein. After normalizing control samples (i.e., DMSO-treated samples) to one-fold, the fold-changes were plotted to indicate the relative ALP activity. […] This protocol was applied to hMSC and E15 cells as well.

For series [3], the system named is C2C12 cells. In words: qPCR detection of osteogenic markers in C2C12 cells. In kind it is cell-based, Mouse. The following applies: 500 nM, 6 days. In general terms: Real-time PCR tracks product formation cycle by cycle.
Series [4] has as its system C2C12 cells. As to the kind of experiment: Alizarin Red S staining (calcium deposition) in C2C12 cells. Type of series: cell-based, Mouse. As to conditions: 500 nM, 25 days of treatment. Here is the method:
Alizarin Red S Staining: C2C12 cells were cultured as described for the ALP functional activity assay (above, except compound was added every 48 hr for 25 days), but using 48-well plate format. On day 25, medium was removed and the cells were washed with PBS (calcium and magnesium free). Cells were fixed with 70% ethanol at room temperature for 30 mins, rinsed with water 3×. Following removal of water, 200 μl of Alizarin Red S (2%, pH 4.1) was added to each well and incubated for at least 20 mins. The dye was removed and the cells were washed with excess H2O four times with gentle mixing. The cells were covered with water to prevent evaporation and analyzed by plate reader or microscope. This protocol was applied to hMSC and E15 cells.

Series [5] concerns C2C12 cells. As to the kind of experiment: Cell proliferation/viability assay (Resazurin / Alamar blue) in C2C12 cells. In kind it is cell-based, Mouse. As to the method:
Cell proliferation/viability assay: Cells were seeded at a density of 500 cells/well on 96-well plates. After 24 hr, compound (i.e., 5 nM, 50 nM, 500 nM or 5000 nM) was added to the cells in the presence or absence of calcium phosphate matrix (5 mg/mL). […] At the specified time, 1 μg of Resazurin was added to each well of the 96-well plate and the fluorescence signal at 590 nm (excitation at 530 nm) was immediately measured. Readings were designated as time zero values (value0h). Cells were incubated for 1 hr before a second fluorescence measurement at 590 nm was made (value1h). The difference in 1 hr and 0 h (value1h−value0h) readings were used to plot the fold-change in cell proliferation/viability after normalizing to control conditions (i.e., DMSO vehicle treatment). Compounds of Formula II or IV that activate Wnt signaling and compounds of Formula VI that activate TLR signaling pathways were analyzed. This protocol was applied to hMSC and E15 cells as well. Cell proliferation was not robust in keeping with a narrow number of cells highly committed to the bone cell lineage.
In general terms: Resazurin is reduced to fluorescent resorufin, in cell work by metabolically active cells.

In series [6] the test system is C2C12 cells. In words: qPCR of apoptosis biomarkers (Bax and Fos) in C2C12 cells. In kind it is cell-based, Mouse. As to conditions: 500 nM or 5 μM every 48 hrs, up to 25 days.
In series [7] the test system is hMSCs. In words: Alkaline Phosphatase functional activity assay in hMSCs. As to conditions: 500 nM. Type of series: cell-based, human. Set-up: key to Alkaline Phosphatase activity, −matrix, 8 days / Alkaline Phosphatase activity, +matrix, 8 days / Alkaline Phosphatase activity, −matrix, 25 days / Alkaline Phosphatase activity, +matrix, 25 days: fold-change vs DMSO-treated control (control = 1).

Series [8] concerns hMSCs. In words: Alamar blue cell viability assay in hMSCs. In kind it is cell-based, human. As to conditions: 500 nM, 25-day-old hMSCs. As to the method: Cell proliferation/viability assay: Cells were seeded at a density of 500 cells/well on 96-well plates. After 24 hr, compound (i.e., 5 nM, 50 nM, 500 nM or 5000 nM) was added to the cells in the presence or absence of calcium phosphate matrix (5 mg/mL). One-half of the media was replaced with fresh media containing compound every 48 hours for 8 days. At the specified time, 1 μg of Resazurin was added to each well of the 96-well plate and the fluorescence signal at 590 nm (excitation at 530 nm) was immediately measured. Readings were designated as time zero values (value0h). Cells were incubated for 1 hr before a second fluorescence measurement at 590 nm was made (value1h). The difference in 1 hr and 0 h (value1h−value0h) readings were used to plot the fold-change in cell proliferation/viability after normalizing to control conditions (i.e., DMSO vehicle treatment). Compounds of Formula II or IV that activate Wnt signaling and compounds of Formula VI that activate TLR signaling pathways were analyzed. This protocol was applied to hMSC and E15 cells as well. Cell proliferation was not robust in keeping with a narrow number of cells highly committed to the bone cell lineage.
The assay for cell proliferation followed the same procedure with hMSCs as described for C2C12 cells (Example 7).

The subject of series [9] is hMSCs. In words: qPCR of apoptosis biomarkers (Bax and Fos) in hMSCs. Type of series: cell-based, human.
For series [10], the system named is hMSCs. In words: Transwell migration of hMSCs to calcium phosphate matrix. Type of series: cell-based, human. As to conditions: 500 nM. Here is the method: Human MSC migration to the site of bone injury is an important part of the repair process. […] After 8 hrs, compounds were washed off the cells and cells placed in a traditional transwell migration system. The top reservoir contained serum-free DMEM and the bottom reservoir contained DMEM plus 2% FBS. After incubation overnight, non-migrated cells were removed, migrated cells (stuck in the bottom chamber) were then fixed with 70% EtOH (40 mins) and total migrated cells were counted under a microscope after staining with 1 mg/mL of crystal violet (1 hr). hMSCs treated with compound 2 (500 nM, 8 hr) induced a 10-fold greater cell migration to the matrix than DMSO-pre-treated cells under the conditions described above. In a separate experiment, matrix that was pre-coated with compound 4 (as prepared in Example 5) was placed in the bottom chamber and migration of hMSCs from the top chamber was evaluated. Compound 4-coated matrix induced a 2-fold increase in cell migration to the matrix compared to DMSO-treated cells.
hMSC migration was analyzed by using calcium phosphate matrix that had been pre-adsorbed with compounds 1 or 2 (500 nM, as described in Example 5) and studied in the transwell system (2% serum, described above). Compound 1 and 2 induced 3.5-fold and 1.9-fold more cell migration than non-coated ceramic. While non-limiting, these examples show the utility of the approach for increased cell migration and localization to the calcium phosphate ceramic matrix when compounds of the disclosure are present. Use of compounds of Formula II, IV, and VI to pre-coat the ceramic and also pretreat the cells is also of utility.

The test system of series [11] is hMSCs. In words: TLR4/TLR3 mRNA expression ratio by qPCR in hMSCs. Type of series: cell-based, human. As to conditions: 500 nM, 8 days. An excerpt: TLRs are modulators of hMSC differentiation. TLRs (TLR1-10) mRNA could be detected by qPCR in hMSCs. TLR4 is a biomarker for osteogenesis and TLR3 is a biomarker for adipogenesis. […]
Series [12] relates to hMSCs. In words: qPCR of target gene mRNA expression in hMSCs. In kind it is cell-based, human. As to conditions: hMSCs, comparison with compound 3 and calcium phosphate ceramic. As to the method:
qPCR detection of osteogenic markers: Cells were cultured with compound in the presence or absence of matrix as described above, but using 96-well plate format. Total RNA was extracted from cells (as above) using Trizol. cDNA was made using 750 ng of total RNA with Bio-Rad iscript kit and was diluted 20-fold before being used for qPCR. qPCR was conducted under the following conditions: 95° C., 2 min; 95° C., 10 s and 60° C., 45 s for 40 cycles; 60° C. for 71 cycles for melt curve. qPCR results were analyzed by the ΔΔCt method. 18s rRNA was used as an internal standard. This protocol was applied to hMSC and E15 cells.
Runx2 and BMP-2 are osteogenic markers; Axin2, Wnt3a, and Sox 9 are Wnt-inducible gene markers.
The assay for mRNA expression followed the same procedure with hMSCs as described for C2C12 cells (Example 7).

A short description of series [13]: Solubility in water. Type of series: physicochemical.
Setting [14] is: matrix 5 mg/mL, mean +/− SD (n = 3).

`Cc1nc2c(-c3ccccc3)cnn2c(NCCN(C)C)c1C` [Compound 2, 3-phenyl-5,6-dimethyl-7-[N-(2-N,N-dimethylaminoethyl)amino]-pyrazolo[1,5-a]pyrimidine]: the pEC50 in series [1] was < 7.40. Further, the “ALP activity, combination of compound and matrix compared to compound alone or matrix alone” value in series [2] (500 nM, 6 day incubation, tricalcium phosphate ceramic matrix 5 mg/mL (FIG. 2)) was “synergistic increase in ALP activity”. Moreover, in series [2] (500 nM, 6 days of culture, calcium phosphate ceramic 5 mg/mL), the “ALP activity fold-changes +/− SD, +matrix” value was 23.6 ± 2.5 fold. The “ID3 mRNA expression, presence of matrix” value in [3] is listed as 1.7 fold. Further, in series [4], the “calcium deposition, absence of matrix” value is recorded as 2.0 fold and the “calcium deposition, presence of matrix” value is 2.3 fold. Further, the “cell viability (Alamar blue)” value in [5] (500 nM every 48 hrs for 25 days) was “did not show a decrease in cell viability”. In addition, the “gene expression of apoptosis biomarkers (Bax and Fos)” value in [6] is “unable to detect gene expression of typical apoptosis biomarkers”. For the same compound, the “ALP functional activity, compound and matrix versus compound alone or matrix alone” value in series [7] (8 and 25 day incubations, matrix 5 mg/mL (FIG. 3)) was “exceeded the effect of compound alone or matrix alone”. Moreover, in [7] (setting [14]), the “Alkaline Phosphatase activity, +matrix, 8 days” value was found to be 2.6 ± 0.3 and the “Alkaline Phosphatase activity, +matrix, 25 days” value is 4.5 ± 0.4. The “Alkaline Phosphatase activity, −matrix, 25 days” value in [7] (mean +/− SD (n = 3)) is reported as 2.6 ± 0.3. Besides, in series [7] (mean +/− SD (n = 3), fold), the “Alkaline Phosphatase activity, −matrix, 8 days” value is 1.5 ± 0.1. In series [8], the “cell viability (Alamar blue)” value is on record as “no decrease in cell viability”. In addition, the “gene expression of apoptosis biomarkers (Bax and Fos)” value in series [9] (500 nM to 5 μM, up to 25 days) is “unable to detect gene expression of typical apoptosis biomarkers”. In addition, the “cytotoxicity as determined by quantification of apoptosis” value in series [9] (hMSCs) was “no cytotoxicity”. In addition, the “cell migration to the matrix, hMSCs pre-treated with compound, versus DMSO-pre-treated cells” value in series [10] (8 hr pre-treatment, transwell overnight) came to 10 fold. Moreover, the “cell migration to matrix pre-adsorbed with compound versus non-coated ceramic” value in [10] (transwell, 2% serum) came out at 1.9 fold. Also, the “TLR4/TLR3 ratio, compound alone” value in series [11] is “modest increase”.

For the compound `O=C(C=Cc1ccc(O)cc1)C=C(O)C=Cc1ccc(O)cc1` [Compound 54, 1,7-Bis(4-hydroxyphenyl)-5-hydroxy-hepta-1,4,6-trien-3-one], the activation at 0.5 µM lay in the range of 5 to 50% in series [2] (absence of matrix) and 50 to 100% in series [2] (presence of calcium phosphate matrix). Moreover, the “increase in cell proliferation (Alamar Blue Assay)” value in [5] (50 nM, 3 days) amounted to 2 fold. In [12], the “robust mRNA up-regulation of VDR or ALP” value is “not observed”. In addition, the solubility in water result in series [13] is “only sparingly soluble”.
